Reference: patent US10611759B2, “Glutaminase inhibitors” (Rhizen Pharmaceuticals SA, priority 2014, dated 2020)
Like-named read-outs stand apart in the source and are kept apart here.

Target: T1, Glutaminase(Brain) (Mus musculus, UniProt D3Z7P3)
T1 sequence (D3Z7P3 55-674): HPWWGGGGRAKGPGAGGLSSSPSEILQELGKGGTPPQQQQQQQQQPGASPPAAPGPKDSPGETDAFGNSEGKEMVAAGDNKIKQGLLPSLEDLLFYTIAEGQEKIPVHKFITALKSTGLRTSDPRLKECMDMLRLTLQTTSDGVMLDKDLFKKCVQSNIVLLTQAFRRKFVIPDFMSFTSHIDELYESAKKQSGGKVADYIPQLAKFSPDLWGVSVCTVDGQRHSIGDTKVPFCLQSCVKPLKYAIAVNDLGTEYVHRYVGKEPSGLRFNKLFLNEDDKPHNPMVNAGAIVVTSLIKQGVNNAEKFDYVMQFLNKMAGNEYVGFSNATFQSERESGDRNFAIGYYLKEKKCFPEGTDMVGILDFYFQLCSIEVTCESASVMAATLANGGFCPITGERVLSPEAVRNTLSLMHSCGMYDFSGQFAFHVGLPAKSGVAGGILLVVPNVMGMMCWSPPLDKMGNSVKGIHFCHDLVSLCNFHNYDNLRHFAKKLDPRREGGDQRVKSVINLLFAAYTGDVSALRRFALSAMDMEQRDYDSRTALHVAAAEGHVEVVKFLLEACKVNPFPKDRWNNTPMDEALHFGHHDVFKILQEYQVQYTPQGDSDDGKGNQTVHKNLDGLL
Test: Glutaminase enzyme activity using glutaminase enzyme from mice brain/kidney homogenate (Nessler's reagent, ammonia)
Format: biochemical
Settings: for inhibition at 0.1 µM: read-out: Glutaminase(Brain) activity % inhibition 0.1 μM; for inhibition at 1 µM: read-out: Glutaminase(Brain) activity % inhibition @1 μM
Protocol: Assay 3: Determination of Glutaminase Enzyme Activity Using Glutaminase Enzyme from Mice Brain/Kidney
Step 1: Preparation of Tissue Homogenates:
Male Balb/c mice were administered 0.28 M ammonium chloride in drinking water for 7 days. The animals were sacrificed and brain/kidney organs collected on dry ice. […] The tissue was homogenized and supernatants were stored at −80° C. until the enzyme assay was performed.
Aim: Compounds were assessed for their ability to inhibit the enzymatic activity of L-glutaminase present in mice brain/kidney homogenate.
Protocol: The assay was performed using a colorimetric method using Nessler's Reagent by quantifying the amount of ammonia formed as a by product during the enzymatic conversion of L-glutamine to glutamate. In the routine assay, 16 μl of tissue homogenate is added to 33 μl of Tris-Hcl phosphate buffer (pH 8) along with 1 μl of DMSO/test compound containing the desired final concentration and vortexed briefly. 50 μl of 20 mM L-glutamine Tris buffer is added to start the reaction and incubated for 15 minutes at 37° C. The ammonia formed is detected by adding 20 μl of reaction mixture to cold water in a 96 well plate followed by 20 μl of Nessler's reagent. The colour developed is measured at 450 nm. Data Analysis: Activity of the test compound is reported as % inhibition and the data is analyzed using Graphpad Prism (Graphpad software; San Diego Calif.) for IC50 determination.

| SMILES | inhibition at 0.1 µM (0.1 μM, mice brain homogenate) [%] | inhibition at 1 µM (1 μM, mice brain homogenate) [%] | inhibition at 0.1 µM [%] | inhibition at 1 µM [%] |
| --- | --- | --- | --- | --- |
| O=C(Cc1ccccn1)Nc1ccc(N2CCC(c3nnc(NC(=O)Cc4ccc(Cl)cc4)s3)CC2)nn1 [Example-29, 2-(4-Chlorophenyl)-N-(5-(1-(6-(2-(pyridin-2-yl)acetamido)pyridazin-3-yl)piperidin-4-yl)-1,3,4-thiadiazol-2-yl)acetamide] | 50 to 75 | 75 to 100 | – | – |
| O=C(Cc1ccccn1)Nc1ccc(N2CCC(c3nnc(NC(=O)Cc4ccccc4F)s3)CC2)nn1 [Example-23, 2-(2-Fluorophenyl)-N-(5-(1-(6-(2-(pyridin-2-yl)acetamido)pyridazin-3-yl)piperidin-4-yl)-1,3,4-thiadiazol-2-yl)acetamide] | 50 to 75 | 75 to 100 | – | – |
| O=C(Cc1cccc(OC(F)(F)F)c1)Nc1ccc(N2CCC(c3nnc(NC(=O)Cc4ccccn4)s3)CC2)cn1 [Example 1, 2-(Pyridin-2-yl)-N-(5-(1-(6-(2-(3-(trifluoromethoxy)phenyl)acetamido)pyridin-3-yl)piperidin-4-yl)-1,3,4-thiadiazol-2-yl)acetamide] | – | – | < 25 | 50 to 75 |
| O=C(Cc1cccc(OC(F)(F)F)c1)Nc1ccc(N2CCCC(c3nnc(NC(=O)Cc4ccccn4)s3)C2)cn1 (racemic) [Example 2, (RS)-2-(Pyridin-2-yl)-N-(5-(1-(6-(2-(3-(trifluoromethoxy)phenyl)acetamido)pyridin-3-yl)piperidin-3-yl)-1,3,4-thiadiazol-2-yl)acetamide] | < 25 | 25 to 50 | – | – |
| Cc1ccccc1CC(=O)Nc1nnc(C2CCN(c3ccc(NC(=O)Cc4cccc(OC(F)(F)F)c4)nn3)CC2)s1 [Example-31, 2-o-Tolyl-N-(5-(1-(6-(2-(3-(trifluoromethoxy)phenyl)acetamido)pyridazin-3-yl)piperidin-4-yl)-1,3,4-thiadiazol-2-yl)acetamide] | 25 to 50 | 50 to 75 | – | – |
| O=C(Cc1cccc(OC(F)(F)F)c1)Nc1ccc(N2CCC(c3nnc(NC(=O)Cc4c[nH]c5ccccc45)s3)CC2)nn1 [Example-32, N-(6-(4-(5-(2-(1H-indol-3-yl)acetamido)-1,3,4-thiadiazol-2-yl)piperidin-1-yl)pyridazin-3-yl)-2-(3-(trifluoromethoxy)phenyl)acetamide] | 25 to 50 | 50 to 75 | – | – |
| O=C(Cc1cccc(OC(F)(F)F)c1)Nc1ccc(N2CCC(c3nnc(NC(=O)Cc4ccc5ncccc5c4)s3)CC2)nn1 [Example-30, 2-(Quinolin-6-yl)-N-(5-(1-(6-(2-(3-(trifluoromethoxy)phenyl)acetamido)pyridazin-3-yl)piperidin-4-yl)-1,3,4-thiadiazol-2-yl)acetamide] | 50 to 75 | 75 to 100 | – | – |
| O=C(Cc1ccccc1F)Nc1ccc(N2CCC(c3nnc(NC(=O)Cc4cnccn4)s3)CC2)nn1 [Example-33, 2-(2-Fluorophenyl)-N-(6-(4-(5-(2-(pyrazin-2-yl)acetamido)-1,3,4-thiadiazol-2-yl)piperidin-1-yl)pyridazin-3-yl)acetamide] | 25 to 50 | 50 to 75 | – | – |
| O=C(Cc1cccc(OC(F)(F)F)c1)Nc1ccc(N2CCC(c3nnc(NC(=O)Cc4cccc(N5CCC5)c4)s3)CC2)nn1 [Example-34, 2-(3-(Azetidin-1-yl)phenyl)-N-(5-(1-(6-(2-(3-(trifluoromethoxy)phenyl)acetamido)pyridazin-3-yl)piperidin-4-yl)-1,3,4-thiadiazol-2-yl)acetamide] | 25 to 50 | 50 to 75 | – | – |
| O=C(Cc1ccccn1)Nc1ccc(N2CCC(c3nnc(NC(=O)Cc4cccc(F)c4)s3)CC2)nn1 [Example-24, 2-(3-Fluorophenyl)-N-(5-(1-(6-(2-(pyridin-2-yl)acetamido)pyridazin-3-yl)piperidin-4-yl)-1,3,4-thiadiazol-2-yl)acetamide] | 50 to 75 | 75 to 100 | – | – |
| O=C(Cc1ccccn1)Nc1ccc(N2CCC(c3nnc(NC(=O)Cc4ccccc4Cl)s3)CC2)nn1 [Example-27, 2-(2-Chlorophenyl)-N-(5-(1-(6-(2-(pyridin-2-yl)acetamido)pyridazin-3-yl)piperidin-4-yl)-1,3,4-thiadiazol-2-yl)acetamide] | 50 to 75 | 75 to 100 | – | – |
| O=C(Cc1ccccn1)Nc1ccc(N2CCC(c3nnc(NC(=O)Cc4cc(Cl)ccc4C(F)(F)F)s3)CC2)nn1 [Example-28, 2-(5-Chloro-2-(trifluoromethyl)phenyl)-N-(5-(1-(6-(2-(pyridin-2-yl)acetamido)pyridazin-3-yl)piperidin-4-yl)-1,3,4-thiadiazol-2-yl)acetamide] | 50 to 75 | 50 to 75 | – | – |
| O=C(Cc1ccccn1)Nc1ccc(N2CCC(c3nnc(NC(=O)Cc4cccc(Cl)c4)s3)CC2)nn1 [Example-35, 2-(3-Chlorophenyl)-N-(5-(1-(6-(2-(pyridin-2-yl)acetamido)pyridazin-3-yl)piperidin-4-yl)-1,3,4-thiadiazol-2-yl)acetamide] | 50 to 75 | 75 to 100 | – | – |
| O=C(Cc1ccccn1)Nc1ccc(N2CCC(c3nnc(NC(=O)Cc4ccc(F)c(F)c4)s3)CC2)nn1 [Example-22, 2-(3,4-Difluorophenyl)-N-(5-(1-(6-(2-(pyridin-2-yl)acetamido)pyridazin-3-yl)piperidin-4-yl)-1,3,4-thiadiazol-2-yl)acetamide] | 50 to 75 | 75 to 100 | – | – |
| O=C(Cc1cccc(OC(F)(F)F)c1)Nc1ccc(N2CCCC(c3nnc(NC(=O)Cc4ccccc4Cl)s3)C2)nn1 (stereo not drawn) [Example-13, 2-(2-Chlorophenyl)-N-(5-(1-(6-(2-(3-(trifluoromethoxy)phenyl)acetamido)pyridazin-3-yl)piperidin-3-yl)-1,3,4-thiadiazol-2-yl)acetamide] | < 25 | 50 to 75 | – | – |
| O=C(Cc1cccc(OC(F)(F)F)c1)Nc1ccc(N2CCCC(c3nnc(NC(=O)Cc4cccnc4)s3)C2)cn1 (single isomer, unassigned) [Example 3B, (S) or (R) 2-(Pyridin-3-yl)-N-(5-(1-(6-(2-(3-(trifluoromethoxy)phenyl)acetamido)pyridine-3-yl)piperidin-3-yl)-1,3,4-thiadiazol-2-yl)acetamide] | < 25 | < 25 | – | – |
| O=C(Cc1cccc(OC(F)(F)F)c1)Nc1ccc(N2CCC(c3nnc(NC(=O)C(CO)c4ccccc4)s3)CC2)nn1 (stereo not drawn) [Example-36, 3-Hydroxy-2-phenyl-N-(5-(1-(6-(2-(3-(trifluoromethoxy)phenyl)acetamido)pyridazin-3-yl)piperidin-4-yl)-1,3,4-thiadiazol-2-yl)propanamide] | 25 to 50 | 50 to 75 | – | – |
| O=C(Cc1ccccn1)Nc1ccc(N2CCC(c3nnc(NC(=O)Cc4cccc(F)c4F)s3)CC2)nn1 [Example-21, 2-(2,3-Difluorophenyl)-N-(5-(1-(6-(2-(pyridin-2-yl)acetamido)pyridazin-3-yl)piperidin-4-yl)-1,3,4-thiadiazol-2-yl)acetamide] | 50 to 75 | 75 to 100 | – | – |
| COc1ccccc1CC(=O)Nc1nnc(C2CCN(c3ccc(NC(=O)Cc4ccccn4)nn3)CC2)s1 [Example-26, 2-(2-Methoxyphenyl)-N-(5-(1-(6-(2-(pyridin-2-yl)acetamido)pyridazin-3-yl)piperidin-4-yl)-1,3,4-thiadiazol-2-yl)acetamide] | 50 to 75 | 75 to 100 | – | – |
| O=C(Cc1ccccn1)Nc1ccc(N2CCC(c3nnc(NC(=O)Cc4cccc(OC(F)(F)F)c4)s3)CC2)cn1 [Example-6, 2-(Pyridin-2-yl)-N-(5-(4-(5-(2-(3-(trifluoromethoxy)phenyl)acetamido)-1,3,4-thiadiazol-2-yl)piperidin-1-yl)pyridin-2-yl)acetamide] | < 25 | < 25 | – | – |
| O=C(Cc1cccc(OC(F)(F)F)c1)Nc1ccc(N2CCCC(c3nnc(NC(=O)Cc4ccccn4)s3)C2)cn1 (single isomer, unassigned) [Example 2A, (R) or (S) 2-(Pyridin-2-yl)-N-(5-(1-(6-(2-(3-(trifluoromethoxy)phenyl)acetamido)pyridin-3-yl)piperidin-3-yl)-1,3,4-thiadiazol-2-yl)acetamide] | < 25 | < 25 | – | – |
